# Measurements reported in PMC4914680 (Antimicrobial Agents and Chemotherapy, 2016).
# Where two headings read alike, the source gives them in different places.
# Assays:
# [1] = tested on: HIV-1 NL4-3 ΔV370 variant (NLRepRlucP373S/Δ370); format: cell-based
# [2] = tested on: HIV-LAI envelope-pseudotyped RepRlucP373SΔenv virus; assay: Two-stage single-cycle pseudotype assay (HIV-1 entry assay); format: cell-based
# [3] = tested on: HIV-1 subtype B clinical isolates; assay: Drug susceptibility assay using clinical isolates in PBMCs
# HIV-1 gp160 = target: T1, HIV-1 gp160 (Human immunodeficiency virus type 1 group M subtype B, UniProt P04578); assay: HIV-1 cell fusion assay; format: cell-based
# T1 construct: expressed in transfected cells; host or cells: NL-TOE donor cells (target cells: HeLa C14)
# HIV-1 NL4-3 [4] = assay: Time-of-addition study, NL4-3-infected B6 cells; format: cell-based; conditions: single cycle, 24 h postinfection
# HIV-1 MN = assay: Multiple-cycle assay, laboratory strains; format: cell-based; conditions: Human immunodeficiency virus 1, CXCR4, MT-2
# HIV-1 JRFL = assay: Multiple-cycle assay, laboratory strains; format: cell-based; conditions: Human immunodeficiency virus 1, CCR5, PM1
# [5] = tested on: HIV-1 subtype G clinical isolates; assay: Drug susceptibility assay using clinical isolates in PBMCs; conditions: Human immunodeficiency virus 1, PBMC
# [6] = tested on: HIV-1 subtype F clinical isolate; assay: as above; conditions: Human immunodeficiency virus 1, PBMC
# in vitro = conditions: dog
# [7] = tested on: HIV-1 subtype A clinical isolates; assay: Drug susceptibility assay using clinical isolates in PBMCs; conditions: Human immunodeficiency virus 1, PBMC
# HIV-1 integrase = HIV-1 integrase (Human immunodeficiency virus type 1 group M subtype B, UniProt P03366); assay: HIV-1 integrase inhibitor binding assay
# HIV-1 RF = assay: Multiple-cycle assay, laboratory strains; format: cell-based; conditions: Human immunodeficiency virus 1
# HIV-1 Bal = assay: Multiple-cycle assay, laboratory strains; format: cell-based; conditions: Human immunodeficiency virus 1, CCR5, PM1
# [8] = tested on: subtype C gag/pr recombinant viruses; assay: Multiple-cycle Gag/Pr phenotyping assay; format: cell-based, HIV-1
# [9] = tested on: HIV-1 subtype D clinical isolates; assay: Drug susceptibility assay using clinical isolates in PBMCs; conditions: Human immunodeficiency virus 1, PBMC
# [10] = human, serum
# [11] = tested on: HIV-1 subtype CRF01_AE clinical isolates; assay: Drug susceptibility assay using clinical isolates in PBMCs; conditions: Human immunodeficiency virus 1, PBMC
# [12] = Serum binding assay (ultracentrifugation)
# HIV-1 IIIB = assay: Multiple-cycle assay, laboratory strains; format: cell-based; conditions: Human immunodeficiency virus 1, CXCR4, MT-2
# [13] = target: HIV-1 reverse transcriptase (Human immunodeficiency virus type 1 group M subtype B, UniProt P03366); assay: In vitro HIV-1 reverse transcriptase assay; format: biochemical
# HIV-2 ROD = assay: Multiple-cycle assay, laboratory strains; format: cell-based; conditions: Human immunodeficiency virus 2, MT-2
# [14] = initial / phase 2a clinical studies; cited from earlier work
# [15] = tested on: V370M virus (recombinant virus with gag/pr genes from a clinical isolate); assay: microbe, parasite or virus in culture; format: cell-based, HIV-1; conditions: Human immunodeficiency virus 1, MT2, read-out: EC50 (SD)
# HIV-1 NL4-3 [16] = assay: Multiple-cycle assay, laboratory strains; format: cell-based; conditions: Human immunodeficiency virus 1, NL43; NL4-3, CXCR4, MT-2
# [17] = tested on: viruses from subtypes A, C, D, F, and G; assay: Drug susceptibility assay using clinical isolates in PBMCs; conditions: Human immunodeficiency virus 1, PBMC, read-out: EC50s (range)
# [18] = tested on: HIV-1 group N clinical isolate; assay: as above; conditions: Human immunodeficiency virus 1, PBMC
# HIV-1 LAI = assay: Multiple-cycle assay, laboratory strains; format: cell-based; conditions: Human immunodeficiency virus 1
# [19] = tested on: MJ4, a subtype C molecular clone; assay: RT activity in PBMCs; conditions: Human immunodeficiency virus 1, PBMC
structure (smiles),measurement,setting,value
C=C(C)[C@@H]1CC[C@]2(NCCN3CCS(=O)(=O)CC3)CC[C@]3(C)[C@H](CC[C@@H]4[C@@]5(C)CC=C(c6ccc(C(=O)O)cc6)C(C)(C)[C@@H]5CC[C@]43C)[C@@H]12 [BMS-955176],EC50,"[1]; Human immunodeficiency virus 1, NL43, MT2",13 nM
same,EC50,"[1]; Human immunodeficiency virus 1, NL43, MT2, read-out: EC50 (SD)",13 nM
same,"inhibition of luciferase, compound added at stage 1 (virus production)",[2],inhibiting luciferase production only when added in the first stage
same,"inhibition of luciferase, compound added at stage 2 (infection)",[2],inhibiting luciferase production only when added in the first stage
same,EC50,"[3]; Human immunodeficiency virus 1, PBMC, read-out: Mean EC50 ± SD, PBMCs, B (96% of Gag diversity), 22 isolates",24 ± 24 nM
same,EC50,"[3]; Human immunodeficiency virus 1, PBMC, read-out: Mean EC50 ± SD, PBMCs, B (all), 26 isolates",67 ± 172 nM
same,EC50,"[3]; Human immunodeficiency virus 1, PBMC, read-out: Median EC50, PBMCs, B (96% of Gag diversity), 22 isolates",17 nM
same,EC50,"[3]; Human immunodeficiency virus 1, PBMC, read-out: Median EC50, PBMCs, B (all), 26 isolates",21 nM
same,EC50,"[3]; Human immunodeficiency virus 1, PBMC, read-out: Range EC50, PBMCs, B (96% of Gag diversity), 22 isolates",1 to 110 nM
same,EC50,"[3]; Human immunodeficiency virus 1, PBMC, read-out: Range EC50, PBMCs, B (all), 26 isolates",1 to 858 nM
same,EC50,"[3]; Human immunodeficiency virus 1, PBMC, read-out: mean EC50, PBMCs, three less susceptible subtype B variants with Gag V370A/ΔT371",123 ± 162 nM
same,EC50,[3]; PBMC,860 nM
same,EC50,HIV-1 gp160,> 2000 nM
same,effect on luciferase signal by time of addition,HIV-1 NL4-3 [4],did not inhibit luciferase expression when added any time during infection
same,EC50,HIV-1 MN,0.9 ± 0.6 nM
same,EC50,HIV-1 JRFL,2.5 ± 0.8 nM
same,EC50,[5]; read-out: Mean EC50 ± SD,11 ± 4 nM
same,EC50,[5]; read-out: Median EC50,10 nM
same,EC50,[5]; read-out: Range EC50,8 to 15 nM
same,EC50,[6]; read-out: Mean EC50,5.9 nM
same,EC50,[6]; read-out: Median EC50,6 nM
same,EC50,[6]; read-out: Range EC50,6 nM
same,CC50,in vitro,3900 nM
same,EC50,"[7]; PBMCs, one less sensitive subtype A isolate",280 nM
same,EC50,"[7]; read-out: Mean EC50 ± SD, PBMCs, A, 13 of 14 isolates",26 ± 25 nM
same,EC50,"[7]; read-out: Mean EC50 ± SD, PBMCs, A, 14 isolates",44 ± 72 nM
same,EC50,"[7]; read-out: Median EC50, PBMCs, A, 13 of 14 isolates",20 nM
same,EC50,"[7]; read-out: Median EC50, PBMCs, A, 14 isolates",21 nM
same,EC50,"[7]; read-out: Range EC50, PBMCs, A, 13 of 14 isolates",5 to 87 nM
same,EC50,"[7]; read-out: Range EC50, PBMCs, A, 14 isolates",5 to 280 nM
same,EC50,"[7]; read-out: median EC50 values, Fig 7, PBMCs, A (Group M)",20000 nM
same,IC50,HIV-1 integrase,> 15000 nM
same,EC50,HIV-1 RF,7.7 ± 1.4 nM
same,EC50,HIV-1 Bal,0.7 ± 0.2 nM
same,EC50,"[8]; Human immunodeficiency virus 1, read-out: EC50 range",2.1 to 45 nM
same,EC50,"[8]; Human immunodeficiency virus 1, read-out: mean EC50",10.9 ± 9.1 nM
same,EC50,"[8]; Human immunodeficiency virus 1, read-out: median EC50",8.8 nM
same,EC50,[9]; read-out: Median EC50,6 nM
same,EC50,[9]; read-out: Range EC50,1 to 21 nM
same,fraction unbound,[10],0.18
same,EC50,"[11]; read-out: Mean EC50 ± SD, PBMCs, AE, 7 isolates",77 ± 46 nM
same,EC50,"[11]; read-out: Range EC50, PBMCs, AE, 7 isolates",10 to 139 nM
same,human serum binding,"[12]; 100% human serum, ultracentrifugation method",86%
same,"fraction unbound at 1 h, 0.052 µM","[12]; human, serum",0.14
same,EC50,HIV-1 IIIB,2.8 ± 0.3 nM
same,IC50,[13],> 50000 nM
same,EC50,HIV-2 ROD,15 ± 1.2 nM
same,clinical safety and tolerability,[14],safe and well tolerated
same,EC50,[15],10 nM
same,EC50,HIV-1 NL4-3 [16],4.7 ± 2.3 nM
same,EC50,[17],5.9 to 87 nM
same,EC50,[18]; read-out: Mean EC50,7.2 nM
same,EC50,[18]; read-out: Median EC50,7 nM
same,EC50,[18]; read-out: Range EC50,7 nM
same,EC50,HIV-1 LAI,2.6 ± 0.3 nM
same,EC50,[19],3 nM
